Data as given in patent publication US9598370B2, “Prolyl hydroxylase inhibitors and methods of use” (Akebia Therapeutics, Inc., priority 2006, dated 2017).

Experiments:
[1] = target: Full-length recombinant human EGLN-3 (His-MBP-TVMVEGLN-3 fusion) (Homo sapiens (Human), UniProt Q9H6Z9); assay: EGLN-3 enzyme activity assay (MALDI-TOF MS); type: biochemical; details: recombinant human EGLN-3 fusion; HIF-1α peptide 556-574 substrate; read-out: EGLIN3 IC50
Method: Hydroxylated peptide product is identified from substrate by the gain of 16 Da. Data defined as percent conversion of substrate to product is analyzed in GraphPad Prism 4 to calculate IC50 values.

[2] = tested on: EPO; assay: Mouse serum EPO assay (mouse ischemic hindlimb study); type: in vivo
Method: (§1) Mouse Ischemic Hindlimb Study
(§2) All animal work is conducted in accordance with the Guide for the Care and Use of Laboratory Animals (National Academy of Sciences; Copyright© 1996) and the Institutional Animal Care and Use Committee guidelines at Procter and Gamble Pharmaceuticals. We studied 9-10 week old male C57Bl/6 mice from Charles River Laboratory (Portage, Mich.). The mice are orally dosed with vehicle (aqueous carbonate buffer, 50 mM; pH 9.0) or compound 1 in vehicle at 50 mg/kg or 100 mg/kg. The animals are dosed three times: day 1 at 8 am and 5 pm, day 2 at 8 am. One hour after the first dose, unilateral arterial ligation is performed under anesthesia using isoflurane. The femoral artery is ligated proximal to the origin of the popliteal artery. The contralateral limb underwent a sham surgical procedure. Ligation is performed in an alternating fashion between right and left hindlimbs. Two hours after 8 am dosing on day 2, we obtained blood by ventricular stick while the mice are anesthetized with isoflurane. Serum samples for EPO analysis are obtained using gel clot serum separation tubes. Heart, liver, and gastrocnemius muscles are harvested, snap-frozen in liquid nitrogen, and stored in −80° C. until use.
The mouse serum EPO is detected using Mouse Quantikine Erythropoietin ELISA kit from R&D Systems according to manufacturer's instructions.

[3] = tested on: HIF-1α; assay: Mouse tissue HIF Western blot analysis; type: in vivo
Method: as §1, §2
Mouse Tissue HIF Western Blot Analysis
Tissues from mice stored at −80° C. are powdered with mortar and pestle chilled with liquid nitrogen. […]

Full-length recombinant human EGLN-3 (His-MBP-TVMVEGLN-3 fusion), sequence (Q9H6Z9 whole entry, the tested form may be a part): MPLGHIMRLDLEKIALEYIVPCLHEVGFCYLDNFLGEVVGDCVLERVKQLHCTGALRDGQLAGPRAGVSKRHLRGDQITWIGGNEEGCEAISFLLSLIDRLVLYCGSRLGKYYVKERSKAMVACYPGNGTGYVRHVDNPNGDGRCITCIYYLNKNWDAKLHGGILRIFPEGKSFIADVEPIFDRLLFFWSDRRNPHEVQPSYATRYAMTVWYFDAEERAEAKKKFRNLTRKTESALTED

| SMILES | IC50 [1] [nM] | EPO response ([2]; in vivo response, mouse serum EPO) | erythropoietin level versus vehicle in mouse serum (FIG. 2) ([2]; mouse serum after oral dosing) | stabilization of HIF-1α in mouse liver (immunoblot of nuclear extracts, FIG. 1) [3] |
| --- | --- | --- | --- | --- |
| O=C(O)CNC(=O)c1ncc(-c2ccc(Cl)cc2)cc1O [{[5-(4-Chlorophenyl)-3-hydroxypyridine-2-carbonyl]amino}-acetic acid] | 83 | yes | – | – |
| O=C(O)CNC(=O)c1ncc(-c2cccc(Cl)c2)cc1O [{[5-(3-Chlorophenyl)-3-hydroxypyridine-2-carbonyl]amino}-acetic acid] | – | – | elevated | stabilization of HIF-1α |
